Values quoted from earlier work in patent publication US20170020837A1, “FUMARATE COMPOUNDS, PHARMACEUTICAL COMPOSITIONS THEREOF, AND METHODS OF USE” (priority 2015, published 2017).

aqueous solubility: poor
SMILES: COC(=O)/C=C/C(=O)OC [DMF, dimethylfumarate]
